In patent publication US20230210984A1, “ADOPTIVE IMMUNOTHERAPY” (The Council of the Queensland Institute of Medical Research, priority 2019, published 2023):

Columns and labels:
[1] = system: SNU719 gastric cancer xenograft; assay: SNU719 xenograft, anti-PD1 and allogenic EBV-specific T cells in vivo; set-up: species or system NOD/SCID mice
From the text: FIG. 6: Impact of PD1 inhibition on therapeutic efficacy of allogeneic EBV-specific cytotoxic T cells in vivo. (A) Heat-map representing gene signature of 326 genes observed RNA isolated from in the tumour infiltrating (TILs) CD8+ cells performed using NanoString Immune function panel. The TILS were isolated from SNU719 derived tumour xenograft from six independent mice (LT5-10) after 5 days post a single dose of TI_001 treatment when the tumour size reached 40 mm^2. The gene expression observed in TILS was compared to unstimulated (LT11) and EBV-pepmix stimulated (LT12). (B) Statistical representation comparing the (i) percentage of CD3+CD8+ population; (ii) percentage of CD8+PD1+ population; (iii) percentage of CD8+LAG3+ population; and (iv) percentage of CD8+ TIM3+ population of viable TILS (described in (A)) and compared to unstimulated T cells (T cell therapy). Error bars represent the ±SEM from three independent experiments. P-values were calculated using one-way ANOVA. Statistical representation of SNU719 derived xenograft indicating (C) tumour growth; (D) tumour weight (in gms) at ethical limit of tumour growth; (E) percent survival post T cell, anti-PD1 and combination of T cell and anti-PD1 therapy observed in respective treatment groups compared to mock (PBS) treated control group. The statistical significance of data of tumour weight was analysed by one-way ANOVA. The mice survival was monitored over the indicated period of time and the statistical significance of data was analysed by log-rank test: ns not significant, **p<0.01, ***p<0.001, and ****p<0.0001.
A total of 12-24 female NOD/SCID mice (depending on the experiment) of 7-8 weeks old were used in this study. The mice were subjected to irradiation with 0.8 Gy cobalt-60 and after 4 hours, were subcutaneously injected with 5×10^6 cells of respective EBV-associated cancer cells with a 29-gauge needle. The mice were monitored for tumour growth, weight and body score thrice weekly. Once the tumour was palpable, the mice were randomised into respective groups and were treated with respective dosage of PBS or 20×10^6 tumour HLA matched allogenic EBV-specific T-cells. The tumour size in these mice were measured thrice weekly using the Vernier Calipers. To calculate tumour area the following formula was used: tumour area=B*S where B=largest tumour measurement and S=the smallest, based on two-dimensional caliper measurements as previously described.
Based on these observations, we hypothesized that a combination of checkpoint inhibitor and T cell therapy may offer better therapeutic benefit against EBV-associated tumours.

[2] = system: EBV-associated cell lines (nasopharyngeal and gastric cancer cell lines); assay: MTS cell viability assay, IC50 of inhibitors; assay type: cell-based
Description: FIG. 9: Determining the IC50 value of MEK1/2 inhibitors. Representation of the cell viability performed using MTS assay after the indicated cell lines were incubated with 0.1 μM-5 μM of selumatinib (left panel) and trametinib (right panel) for 48 hours. The data are represented as the mean±SD from three independent experiments.
FIG. 14: Determining the IC50 value of JQ1 inhibitors. Representation of the cell viability performed using MTS assay after the indicated cell lines were incubated with 0.5 μM-10 μM of JQ1 for 48 hours. The data are represented as the mean±SD from three independent experiments.
Cell viability assay was performed using the CellTiter 96® AQueous one cell viability assay reagent (Promega, WI, USA) for three biological replicates per EBV-associated cancer cell lines in triplicate. Briefly, the cancer cells (target cells) were plated at a density of 5000 cells per well in an overall media volume of 200 μL on a 96-well tissue-culture plate (BD Falcon™). The effector AdE1-LMPpoly transfected T cells were freshly thawed in RPMI-1640 with 10% FCS and 120 IU/mL of recombinant IL-2 at 37° C. and […]. Post 24 hrs of plating and incubation at 37° C. and […], the effector T cells were mixed to the target cells at a gradient ratio of effector to target (E:T) of 5:1-100:1. The exact number of T cells (To) used per E:T ratio (ET) was independently used as control alongside PBS treated target cells (Es) and sole media (M0). After 24 hrs of incubation at 37° C. and […], MTS was added to each well (1:100 dilution in media) and was incubated for 1 hour following which the plate was centrifuged at 1,200×g at room temperature for 5 min and absorbance of the mixture at an optical density of 490 nm was measured via a microplate reader. The relative cell viability was calculated using the following formula: […]
To determine the upregulation of MAPK pathway in EBV-associated solid cancers, we first identified the IC50 value of MEK1/2 inhibitors (AZD6244 or selumetanib and trematinib) across nasopharyngeal and gastric cancer cell lines (with drug concertation ranging from 0.1 μM-5 μM). […] In the next set of experiments, we wanted to determine the impact of MEK1/2 inhibition in combination with allogeneic EBV-specific T cells on EBV-associated solid cancers. As such, we treated the respective EBV-associated cell lines (both gastric and nasopharyngeal) individually or in combination with MEK1/2 inhibitors (both selumetanib and trematinib) and EBV-specific T cells.
Similarly, we targeted MYC-dependent cancer intrinsic pathway using JQ1 inhibitor by first determining the IC50 value of the inhibitor across nasopharyngeal and gastric cancer cell lines (with drug concertation ranging from 0.5 μM-10 μM). […] To characterized the impact of JQ1 inhibition in combination with allogeneic EBV-specific T cells on EBV-associated cancer cells, we used IC25 value JQ1 (2.5 μM) alongside an effector to target ratio of 25:1 of the respective HLA matched allogeneic EBV-specific T cells in vitro. […] We also performed phenotypic characterization, using flow cytometry, of SNU719 and C666.1 cells after 16 hours of individual and dual treatment in vitro.

Molecule | SNU719 gastric cancer outgrowth ([1]; Nivolumab 24 hrs after T cell infusion, combination vs monotherapy and mock-treated groups, p<0.0001) | tumour size (tumour weight) ([1]; combination with T cells vs monotherapy groups) | survival post therapy ([1]; combination with T cells vs monotherapy or mock-treated group, p<0.0001) | better survival in comparison to only T cell treated group ([1]; combination with T cells, p<0.01) [fold] | IC50 ([2]; 48 h, read-out: IC50 (~50% reduction in cell viability)) [nM] | IC25 value (sub IC50 value) ([2]; concentration chosen for in vitro combination treatment) [nM]
Nivolumab: anti-PD1 antibody | significantly reduced | significantly reduced tumour size | significantly improved | ~2 | – | –
CC(=O)Nc1cccc(-n2c(=O)n(C3CC3)c(=O)c3c(Nc4ccc(I)cc4F)n(C)c(=O)c(C)c32)c1 [trematinib] | – | – | – | – | ~2500 | 1000
